According to patent publication US10131652B2, “Pyrimidinyloxy benzene derivatives as herbicides” (E. I. DU PONT DE NEMOURS AND COMPANY, priority 2014, dated 2018):
Where two headings read alike, the source gives them in different places.

Key:
Test in all cases: Test D pre-/postemergence plant response
Assay type in all cases: in vivo
[1] = test system: morningglory (Ipomoea coccinea); conditions: Ipomoea; for pest or weed control at 16 g/ha: 16 g ai/ha; for pest or weed control at 31 g/ha: 31 g ai/ha; for pest or weed control at 62 g/ha: 62 g ai/ha; for pest or weed control at 125 g/ha: 125 g ai/ha
Outline: (§1)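 Preemergence: seeds in loam/sand blend treated with test chemicals in non-phytotoxic solvent with surfactant; postemergence: plants at 2–18 cm (1- to 4-leaf stage) in peat-based medium sprayed likewise. Greenhouse 13 to 15 days, then visual rating vs controls, 0 (no effect) to 100 (complete control).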

[2] = test system: oilseed rape (Brassica napus); conditions: Brassica napus; for plant injury at 16 g/ha: 16 g ai/ha; for plant injury at 31 g/ha: 31 g ai/ha; for plant injury at 62 g/ha: 62 g ai/ha; for plant injury at 125 g/ha: 125 g ai/ha
Outline: as §1

[3] = test system: pigweed (Amaranthus retroflexus); conditions: Amaranthus retroflexus; for pest or weed control at 16 g/ha: 16 g ai/ha; for pest or weed control at 31 g/ha: 31 g ai/ha; for pest or weed control at 62 g/ha: 62 g ai/ha; for pest or weed control at 125 g/ha: 125 g ai/ha
Outline: as §1

[4] = test system: ragweed (common ragweed, Ambrosia elatior); conditions: Ambrosia artemisiifolia; for pest or weed control at 16 g/ha: 16 g ai/ha; for pest or weed control at 31 g/ha: 31 g ai/ha; for pest or weed control at 62 g/ha: 62 g ai/ha; for pest or weed control at 125 g/ha: 125 g ai/ha
Outline: as §1

[5] = test system: soybean (Glycine max); conditions: Glycine max; for plant injury at 16 g/ha: 16 g ai/ha; for plant injury at 31 g/ha: 31 g ai/ha; for plant injury at 62 g/ha: 62 g ai/ha; for plant injury at 125 g/ha: 125 g ai/ha
Outline: as §1

[6] = test system: velvetleaf (Abutilon theophrasti); conditions: Abutilon theophrasti; for pest or weed control at 16 g/ha: 16 g ai/ha; for pest or weed control at 31 g/ha: 31 g ai/ha; for pest or weed control at 62 g/ha: 62 g ai/ha; for pest or weed control at 125 g/ha: 125 g ai/ha
Outline: as §1

[7] = test system: waterhemp (common waterhemp, Amaranthus rudis); conditions: Amaranthus tuberculatus; for pest or weed control at 16 g/ha: 16 g ai/ha; for pest or weed control at 31 g/ha: 31 g ai/ha; for pest or weed control at 62 g/ha: 62 g ai/ha; for pest or weed control at 125 g/ha: 125 g ai/ha
Outline: as §1

[8] = test system: winter wheat (Triticum aestivum); conditions: Triticum aestivum; for plant injury at 16 g/ha: 16 g ai/ha; for plant injury at 31 g/ha: 31 g ai/ha; for plant injury at 62 g/ha: 62 g ai/ha; for plant injury at 125 g/ha: 125 g ai/ha
Outline: as §1

[9] = test system: yellow nutsedge (Cyperus esculentus); conditions: Cyperus; for pest or weed control at 16 g/ha: 16 g ai/ha; for pest or weed control at 31 g/ha: 31 g ai/ha; for pest or weed control at 62 g/ha: 62 g ai/ha; for pest or weed control at 125 g/ha: 125 g ai/ha
Outline: as §1

[10] = post-emergence, Postemergence, scale 0 to 100 (0 no effect, 100 complete control), read-out: Morningglory plant response rating
[11] = post-emergence, Postemergence, scale 0 to 100, 0 no effect, 100 complete control, read-out: Plant response rating, Morningglory
[12] = pre-emergence, Preemergence, scale 0 to 100 (0 no effect, 100 complete control), read-out: Plant response rating, Morningglory
[13] = post-emergence, Postemergence, scale 0 to 100 (0 no effect, 100 complete control), read-out: Oilseed Rape plant response rating
[14] = post-emergence, Postemergence, scale 0 to 100, 0 no effect, 100 complete control, read-out: Plant response rating, Oilseed Rape
[15] = pre-emergence, Preemergence, scale 0 to 100 (0 no effect, 100 complete control), read-out: Plant response rating, Oilseed Rape
[16] = post-emergence, Postemergence, scale 0 to 100 (0 no effect, 100 complete control), read-out: Pigweed plant response rating
[17] = post-emergence, Postemergence, scale 0 to 100, 0 no effect, 100 complete control, read-out: Plant response rating, Pigweed
[18] = pre-emergence, Preemergence, scale 0 to 100 (0 no effect, 100 complete control), read-out: Plant response rating, Pigweed
[19] = post-emergence, Postemergence, scale 0 to 100 (0 no effect, 100 complete control), read-out: Ragweed plant response rating
[20] = post-emergence, Postemergence, scale 0 to 100, 0 no effect, 100 complete control, read-out: Plant response rating, Ragweed
[21] = pre-emergence, Preemergence, scale 0 to 100 (0 no effect, 100 complete control), read-out: Plant response rating, Ragweed
[22] = post-emergence, Postemergence, scale 0 to 100 (0 no effect, 100 complete control), read-out: Soybean plant response rating
[23] = post-emergence, Postemergence, scale 0 to 100, 0 no effect, 100 complete control, read-out: Plant response rating, Soybean
[24] = pre-emergence, Preemergence, scale 0 to 100 (0 no effect, 100 complete control), read-out: Plant response rating, Soybean
[25] = post-emergence, Postemergence, scale 0 to 100 (0 no effect, 100 complete control), read-out: Velvetleaf plant response rating
[26] = post-emergence, Postemergence, scale 0 to 100, 0 no effect, 100 complete control, read-out: Plant response rating, Velvetleaf
[27] = pre-emergence, Preemergence, scale 0 to 100 (0 no effect, 100 complete control), read-out: Plant response rating, Velvetleaf
[28] = post-emergence, Postemergence, scale 0 to 100 (0 no effect, 100 complete control), read-out: Waterhemp plant response rating
[29] = post-emergence, Postemergence, scale 0 to 100, 0 no effect, 100 complete control, read-out: Plant response rating, Waterhemp
[30] = pre-emergence, Preemergence, scale 0 to 100 (0 no effect, 100 complete control), read-out: Plant response rating, Waterhemp
[31] = post-emergence, Postemergence, scale 0 to 100 (0 no effect, 100 complete control), read-out: Wheat plant response rating
[32] = post-emergence, Postemergence, scale 0 to 100, 0 no effect, 100 complete control, read-out: Plant response rating, Wheat
[33] = pre-emergence, Preemergence, scale 0 to 100 (0 no effect, 100 complete control), read-out: Plant response rating, Wheat
[34] = post-emergence, Postemergence, scale 0 to 100 (0 no effect, 100 complete control), read-out: Nutsedge, Yellow plant response rating
[35] = post-emergence, Postemergence, scale 0 to 100, 0 no effect, 100 complete control, read-out: Plant response rating, Nutsedge, Yellow
[36] = pre-emergence, Preemergence, scale 0 to 100 (0 no effect, 100 complete control), read-out: Plant response rating, Nutsedge, Yellow

## FC(F)(F)c1cc(-c2ccccc2Oc2ncc(Cl)cn2)on1 [Compound 63, 5-chloro-2-[2-[3-(trifluoromethyl)-5-isoxazolyl]phenoxy]pyrimidine]
[1]; [10]
  pest or weed control at 16 g/ha: 50%
  pest or weed control at 31 g/ha: 50%
[1]; [11]
  pest or weed control at 62 g/ha: 98%
  pest or weed control at 125 g/ha: 70%
[1]; pre-emergence, Preemergence, read-out: Plant response rating (scale 0 to 100), Morningglory
  pest or weed control at 125 g/ha: 60%
[1]; [12]
  pest or weed control at 16 g/ha: 0%
  pest or weed control at 31 g/ha: 0%
  pest or weed control at 62 g/ha: 25%
[2]; [13]
  plant injury at 16 g/ha: 60%
  plant injury at 31 g/ha: 90%
[2]; [14]
  plant injury at 62 g/ha: 98%
  plant injury at 125 g/ha: 100%
[2]; pre-emergence, Preemergence, read-out: Plant response rating (scale 0 to 100), Oilseed Rape
  plant injury at 125 g/ha: 98%
[2]; [15]
  plant injury at 16 g/ha: 70%
  plant injury at 31 g/ha: 98%
  plant injury at 62 g/ha: 98%
[3]; [16]
  pest or weed control at 16 g/ha: 85%
  pest or weed control at 31 g/ha: 85%
[3]; [17]
  pest or weed control at 62 g/ha: 90%
  pest or weed control at 125 g/ha: 95%
[3]; pre-emergence, Preemergence, read-out: Plant response rating (scale 0 to 100), Pigweed
  pest or weed control at 125 g/ha: 100%
[3]; [18]
  pest or weed control at 16 g/ha: 95%
  pest or weed control at 31 g/ha: 100%
  pest or weed control at 62 g/ha: 100%
[4]; [19]
  pest or weed control at 16 g/ha: 10%
  pest or weed control at 31 g/ha: 40%
[4]; [20]
  pest or weed control at 62 g/ha: 55%
  pest or weed control at 125 g/ha: 55%
[4]; pre-emergence, Preemergence, read-out: Plant response rating (scale 0 to 100), Ragweed
  pest or weed control at 125 g/ha: 70%
[4]; [21]
  pest or weed control at 16 g/ha: 75%
  pest or weed control at 31 g/ha: 20%
  pest or weed control at 62 g/ha: 55%
[5]; [22]
  plant injury at 16 g/ha: 35%
  plant injury at 31 g/ha: 45%
[5]; [23]
  plant injury at 62 g/ha: 55%
  plant injury at 125 g/ha: 98%
[5]; pre-emergence, Preemergence, read-out: Plant response rating (scale 0 to 100), Soybean
  plant injury at 125 g/ha: 60%
[5]; [24]
  plant injury at 16 g/ha: 5%
  plant injury at 31 g/ha: 15%
  plant injury at 62 g/ha: 45%
[6]; [25]
  pest or weed control at 16 g/ha: 10%
  pest or weed control at 31 g/ha: 25%
[6]; [26]
  pest or weed control at 62 g/ha: 40%
  pest or weed control at 125 g/ha: 40%
[6]; pre-emergence, Preemergence, read-out: Plant response rating (scale 0 to 100), Velvetleaf
  pest or weed control at 125 g/ha: 100%
[6]; [27]
  pest or weed control at 16 g/ha: 40%
  pest or weed control at 31 g/ha: 100%
  pest or weed control at 62 g/ha: 100%
[7]; [28]
  pest or weed control at 16 g/ha: 85%
  pest or weed control at 31 g/ha: 85%
[7]; [29]
  pest or weed control at 62 g/ha: 98%
  pest or weed control at 125 g/ha: 98%
[7]; pre-emergence, Preemergence, read-out: Plant response rating (scale 0 to 100), Waterhemp
  pest or weed control at 125 g/ha: 100%
[7]; [30]
  pest or weed control at 16 g/ha: 90%
  pest or weed control at 31 g/ha: 100%
  pest or weed control at 62 g/ha: 100%
[8]; [31]
  plant injury at 16 g/ha: 0%
  plant injury at 31 g/ha: 0%
[8]; [32]
  plant injury at 62 g/ha: 5%
  plant injury at 125 g/ha: 5%
[8]; pre-emergence, Preemergence, read-out: Plant response rating (scale 0 to 100), Wheat
  plant injury at 125 g/ha: 45%
[8]; [33]
  plant injury at 16 g/ha: 0%
  plant injury at 31 g/ha: 0%
  plant injury at 62 g/ha: 10%
[9]; [34]
  pest or weed control at 16 g/ha: 0%
  pest or weed control at 31 g/ha: 0%
[9]; [35]
  pest or weed control at 62 g/ha: 5%
  pest or weed control at 125 g/ha: 5%
[9]; pre-emergence, Preemergence, read-out: Plant response rating (scale 0 to 100), Nutsedge, Yellow
  pest or weed control at 125 g/ha: 5%
[9]; [36]
  pest or weed control at 16 g/ha: 0%
  pest or weed control at 31 g/ha: 0%
  pest or weed control at 62 g/ha: 0%
